Measurements from US9908912B2, “Triclosan derivatives and uses thereof” (priority 2012, dated 2018).
In brackets after ≈: the same amount, converted by molar mass.

What was measured:
S. haemolyticus = assay: MIC in Nutrient Agar; format: cell-based, Staphylococcus haemolyticus; details: Nutrient Agar containing 0.1 μg/ml of inducer; 37° C., 24 hours
Procedure: (§1) The triclosan-glycosides were added to Nutrient Agar (Oxoid CM0003; Thermofisher Scientific) and organisms were transferred onto the plates surface using a multi-point inoculation device (Oxoid Cathra, Thermofisher Scientific). The latter is essentially a metal plate containing a number of needles. Each needle tip (usually 36 per plate) dips into an organism suspension (in phosphate buffered saline; PBS) and the needles are then moved over the agar plate and lowered onto its surface. In this way the growth of colonies of up to 36 different organisms can be observed on one plate.
(§2) Nutrient Agar No. 2 was prepared according to the manufacturers instructions, autoclaved and cooled to 50° C. Test compounds were then added as filter sterilised solutions (50:50 deionised water:ethanol), to give final concentrations from 256 μg/ml to 0 μg/ml in doubling dilutions. […] The mixtures were swirled then four plates (25 ml molten agar) were poured for each concentration. Plates were dried in a laminar flow cabinet then inoculated with overnight cultures of organisms that had been decimally diluted twice in sterile saline solution (approximately 10^7 cfu/ml) using a multi-point inoculator. Plates were then incubated at 37° C. for 24 hours. MICs were determined as the concentration at which no growth was observed.

[1] = test system: Crono. sakazakii ATCC 29544; assay: MIC in Nutrient Broth No. 2; format: cell-based, Cronobacter sakazakii; details: Nutrient Broth No. 2
Procedure: (§3) Bacteria species as indicated in Table 1 were incubated for approximately 24 hours at 37° C.
(§4) The tests were repeated with the addition of inducers. Methyl glycoside was the main inducer used, but other suitable inducers include isopropyl-β-D-thiogalactopyranoside, p-nitrophenyl-α-L-arabinopyranoside and p-nitrophenyl-β-D-xylopyranoside. Concentration of inducer in all cases was 100 μg/ml.

[2] = test system: Strep. pneumoniae ATCC 6305; assay: MIC in Nutrient Broth No. 2; format: cell-based, Streptococcus pneumoniae; details: Nutrient Broth No. 2
Procedure: as §3, §4

[3] = test system: Kleb. aerogenes NCTC 88167; assay: MIC in Nutrient Broth No. 2; format: cell-based, Klebsiella aerogenes; details: Nutrient Broth No. 2
Procedure: as §3, §4

S. epidermidis = assay: MIC in Nutrient Agar; format: cell-based, Staphylococcus epidermidis; details: 3 strains; Nutrient Agar containing 0.1 μg/ml of inducer; 37° C., 24 hours
Procedure: as §1, §2

S. saprophyticus = assay: MIC in Nutrient Agar; format: cell-based, Staphylococcus saprophyticus; details: Nutrient Agar containing 0.1 μg/ml of inducer; 37° C., 24 hours
Procedure: as §1, §2

[4] = test system: Staph. saprophyticus ATCC 15305; assay: MIC in Nutrient Broth No. 2; format: cell-based, Staphylococcus saprophyticus; details: Nutrient Broth No. 2
Procedure: as §3, §4

Ent. aerogenes = assay: MIC in Nutrient Agar; format: cell-based, Enterobacter aerogenes; details: Nutrient Agar containing 0.1 μg/ml of inducer; 37° C., 24 hours
Procedure: as §1, §2

Ent. cloacae = assay: MIC in Nutrient Agar; format: cell-based, Enterobacter cloacae; details: Nutrient Agar containing 0.1 μg/ml of inducer; 37° C., 24 hours
Procedure: as §1, §2

Cr. sakazakii = assay: MIC in Nutrient Agar; format: cell-based, Cronobacter sakazakii; details: Nutrient Agar containing 0.1 μg/ml of inducer; 37° C., 24 hours
Procedure: as §1, §2

Str. pyogenes = assay: MIC in Nutrient Agar; format: cell-based, Streptococcus pyogenes; details: Nutrient Agar containing 0.1 μg/ml of inducer; 37° C., 24 hours
Procedure: as §1, §2

Staph. aureus = assay: MIC in Nutrient Broth No. 2; format: cell-based, Staphylococcus aureus; details: 8 strains, Nutrient Broth No. 2
Procedure: as §3, §4

Ps. aeruginosa = assay: MIC in Nutrient Agar; format: cell-based; details: Nutrient Agar containing 0.1 μg/ml of inducer; 37° C., 24 hours
Procedure: as §1, §2

Hafnia alvei = assay: MIC in Nutrient Agar; format: cell-based; details: Nutrient Agar containing 0.1 μg/ml of inducer; 37° C., 24 hours
Procedure: as §1, §2

Bacillus cereus = assay: MIC in Nutrient Agar; format: cell-based; details: Nutrient Agar containing 0.1 μg/ml of inducer; 37° C., 24 hours
Procedure: as §1, §2

Ent. faecalis = assay: MIC in Nutrient Agar; format: cell-based, Enterococcus faecalis; details: Nutrient Agar containing 0.1 μg/ml of inducer; 37° C., 24 hours
Procedure: as §1, §2

C. freundii = assay: MIC in Nutrient Agar; format: cell-based, Citrobacter freundii; details: Nutrient Agar containing 0.1 μg/ml of inducer; 37° C., 24 hours
Procedure: as §1, §2

Ent. cloacae ATCC 13047 = assay: MIC in Nutrient Broth No. 2; format: cell-based, Enterobacter cloacae; details: Nutrient Broth No. 2
Procedure: as §3, §4

Kleb. aerogenes = assay: MIC in Nutrient Agar; format: cell-based, Klebsiella aerogenes; details: Nutrient Agar containing 0.1 μg/ml of inducer; 37° C., 24 hours
Procedure: as §1, §2

[5] = test system: Citrobacter freundii OCC 851; assay: MIC in Nutrient Broth No. 2; format: cell-based; details: Nutrient Broth No. 2
Procedure: as §3, §4

Hafnia alvei ATCC 13337 = assay: MIC in Nutrient Broth No. 2; format: cell-based; details: Nutrient Broth No. 2
Procedure: as §3, §4

[6] = test system: Enterococcus faecium ATCC 19434; assay: MIC in Nutrient Broth No. 2; format: cell-based; details: Nutrient Broth No. 2
Procedure: as §3, §4

[7] = test system: Bacillus subtilis NCTC 10073; assay: MIC in Nutrient Broth No. 2; format: cell-based; details: Nutrient Broth No. 2
Procedure: as §3, §4

[8] = test system: Enterobacter aerogenes ATCC 13048; assay: MIC in Nutrient Broth No. 2; format: cell-based; details: Nutrient Broth No. 2
Procedure: as §3, §4

[9] = test system: Serratia marcescens OCC 217; assay: MIC in Nutrient Broth No. 2; format: cell-based; details: Nutrient Broth No. 2
Procedure: as §3, §4

[10] = test system: Bacillus cereus ATCC 14579; assay: MIC in Nutrient Broth No. 2; format: cell-based; details: Nutrient Broth No. 2
Procedure: as §3, §4

[11] = test system: Ps. Aeruginosa ATCC 27853; assay: MIC in Nutrient Broth No. 2; format: cell-based; details: Nutrient Broth No. 2
Procedure: as §3, §4

[12] = test system: Enterococcus faecalis ATCC 29212; assay: MIC in Nutrient Broth No. 2; format: cell-based; details: Nutrient Broth No. 2
Procedure: as §3, §4

Salmonella = assay: MIC in Nutrient Broth No. 2; format: cell-based; details: 11 strains, Nutrient Broth No. 2
Procedure: as §3, §4

Proteus vulgaris OCC 195 = assay: MIC in Nutrient Broth No. 2; format: cell-based; details: Nutrient Broth No. 2
Procedure: as §3, §4

Escherichia coli = assay: MIC in Nutrient Broth No. 2; format: cell-based; details: 8 strains, Nutrient Broth No. 2
Procedure: as §3, §4

[13] = test system: Proteus mirabilis ATCC 12453; assay: MIC in Nutrient Broth No. 2; format: cell-based; details: Nutrient Broth No. 2
Procedure: as §3, §4

[14] = test system: Aeromonas hydrophila OCC 778; assay: MIC in Nutrient Broth No. 2; format: cell-based; details: Nutrient Broth No. 2
Procedure: as §3, §4

Question: How did the MIC (S. haemolyticus) turn out when OC[C@H]1O[C@H](Oc2cc(Cl)ccc2Oc2ccc(Cl)cc2Cl)[C@H](O)[C@@H](O)[C@H]1O [α-D-Galactoside, triclosan-α-D-galactopyranoside] was run?
Answer: Its MIC is 8 µg/mL (≈ 17.7 µM).

Question: What about the MIC ([1]; with inducer 100 μg/ml) of the same compound?
Answer: Its MIC is 64 µg/mL (≈ 142 µM).

Question: What about the MIC ([1]; without inducer) of the same compound?
Answer: Its MIC is 128 µg/mL (≈ 283 µM).

Question: What about the MIC ([2]; with inducer 100 μg/ml) of the same compound?
Answer: The MIC was 256 µg/mL (≈ 567 µM).

Question: And the MIC ([2]; without inducer)?
Answer: Its MIC is 128 µg/mL (≈ 283 µM).

Question: And the MIC ([3]; with inducer 100 μg/ml)?
Answer: The MIC was 64 µg/mL (≈ 142 µM).

Question: What about the MIC ([3]; without inducer) of the same compound?
Answer: The MIC was 32 µg/mL (≈ 70.8 µM).

Question: What about the MIC (S. epidermidis) of the same compound?
Answer: The MIC was 8 µg/mL (≈ 17.7 µM).

Question: What about the MIC (S. saprophyticus) of the same compound?
Answer: Its MIC is 32 µg/mL (≈ 70.8 µM).

Question: And the MIC ([4]; with inducer 100 μg/ml)?
Answer: Its MIC is 64 µg/mL (≈ 142 µM).

Question: What about the MIC ([4]; without inducer) of the same compound?
Answer: The MIC was 64 µg/mL (≈ 142 µM).

Question: What about the MIC (Ent. aerogenes) of the same compound?
Answer: Its MIC is 64 µg/mL (≈ 142 µM).

Question: And the MIC (Ent. cloacae)?
Answer: The MIC was 32 µg/mL (≈ 70.8 µM).

Question: What about the MIC (Cr. sakazakii) of the same compound?
Answer: The MIC was 32 µg/mL (≈ 70.8 µM).

Question: And the MIC (Str. pyogenes)?
Answer: Its MIC is greater than 256 µg/mL.

Question: And the MIC (Staph. aureus; with inducer 100 μg/ml)?
Answer: Its MIC is 8 to 16 µg/mL.

Question: What about the MIC (Staph. aureus; without inducer) of the same compound?
Answer: Its MIC is 8 to 16 µg/mL.

Question: And the MIC (Ps. aeruginosa)?
Answer: The MIC was greater than 256 µg/mL.

Question: And the MIC (Hafnia alvei)?
Answer: Its MIC is 4 µg/mL (≈ 8.86 µM).

Question: And the MIC (Bacillus cereus)?
Answer: The MIC was greater than 256 µg/mL.

Question: And the MIC (Ent. faecalis)?
Answer: Its MIC is greater than 256 µg/mL.

Question: What about the MIC (C. freundii) of the same compound?
Answer: The MIC was 64 µg/mL (≈ 142 µM).

Question: What about the MIC (Ent. cloacae ATCC 13047; with inducer 100 μg/ml) of the same compound?
Answer: The MIC was 16 µg/mL (≈ 35.4 µM).

Question: And the MIC (Ent. cloacae ATCC 13047; without inducer)?
Answer: Its MIC is 32 µg/mL (≈ 70.8 µM).

Question: What about the MIC (Kleb. aerogenes) of the same compound?
Answer: The MIC was 32 µg/mL (≈ 70.8 µM).

Question: And the MIC ([5]; with inducer 100 μg/ml)?
Answer: The MIC was 128 µg/mL (≈ 283 µM).

Question: What about the MIC ([5]; without inducer) of the same compound?
Answer: The MIC was 64 µg/mL (≈ 142 µM).

Question: What about the MIC (Hafnia alvei ATCC 13337; with inducer 100 μg/ml) of the same compound?
Answer: Its MIC is 8 µg/mL (≈ 17.7 µM).

Question: And the MIC (Hafnia alvei ATCC 13337; without inducer)?
Answer: The MIC was 16 µg/mL (≈ 35.4 µM).

Question: What about the MIC ([6]; with inducer 100 μg/ml) of the same compound?
Answer: Its MIC is greater than 256 µg/mL.

Question: What about the MIC ([6]; without inducer) of the same compound?
Answer: Its MIC is greater than 256 µg/mL.

Question: What about the MIC ([7]; with inducer 100 μg/ml) of the same compound?
Answer: The MIC was greater than 256 µg/mL.

Question: And the MIC ([7]; without inducer)?
Answer: Its MIC is 256 µg/mL (≈ 567 µM).

Question: What about the MIC ([8]; with inducer 100 μg/ml) of the same compound?
Answer: Its MIC is 64 µg/mL (≈ 142 µM).

Question: What about the MIC ([8]; without inducer) of the same compound?
Answer: Its MIC is 128 µg/mL (≈ 283 µM).

Question: What about the MIC ([9]; with inducer 100 μg/ml) of the same compound?
Answer: Its MIC is greater than 256 µg/mL.

Question: What about the MIC ([9]; without inducer) of the same compound?
Answer: The MIC was greater than 256 µg/mL.

Question: And the MIC ([10]; with inducer 100 μg/ml)?
Answer: The MIC was greater than 256 µg/mL.

Question: What about the MIC ([10]; without inducer) of the same compound?
Answer: The MIC was greater than 256 µg/mL.

Question: And the MIC ([11]; with inducer 100 μg/ml)?
Answer: Its MIC is greater than 256 µg/mL.

Question: And the MIC ([11]; without inducer)?
Answer: Its MIC is greater than 256 µg/mL.

Question: And the MIC ([12]; with inducer 100 μg/ml)?
Answer: Its MIC is greater than 256 µg/mL.

Question: What about the MIC ([12]; without inducer) of the same compound?
Answer: Its MIC is greater than 256 µg/mL.

Question: What about the MIC (Salmonella; with inducer 100 μg/ml) of the same compound?
Answer: The MIC was 32 to 128 µg/mL.

Question: And the MIC (Salmonella; without inducer)?
Answer: The MIC was 32 to 64 µg/mL.

Question: What about the MIC (Proteus vulgaris OCC 195; with inducer 100 μg/ml) of the same compound?
Answer: Its MIC is 64 µg/mL (≈ 142 µM).

Question: And the MIC (Proteus vulgaris OCC 195; without inducer)?
Answer: The MIC was 64 µg/mL (≈ 142 µM).

Question: What about the MIC (Escherichia coli; with inducer 100 μg/ml) of the same compound?
Answer: Its MIC is 8 to 64 µg/mL.

Question: And the MIC (Escherichia coli; without inducer)?
Answer: The MIC was 16 to 64 µg/mL.

Question: And the MIC ([13]; with inducer 100 μg/ml)?
Answer: The MIC was 32 µg/mL (≈ 70.8 µM).

Question: What about the MIC ([13]; without inducer) of the same compound?
Answer: Its MIC is 32 µg/mL (≈ 70.8 µM).

Question: What about the MIC ([14]; with inducer 100 μg/ml) of the same compound?
Answer: The MIC was greater than 256 µg/mL.

Question: And the MIC ([14]; without inducer)?
Answer: The MIC was greater than 256 µg/mL.
